Source: US10220025B1, “Self-emulsifying formulation of CARP-1 functional mimetics” (Florida A&M University, priority 2016, dated 2019)

Key:
[1] = tested on: parental and drug-resistant TNBC and SKBR-3 cells; experiment: soft-agar clonogenic assay; format: cell-based; conditions: 10 μM; FIGS. 11D, 12C, 12D, 13C
Protocol: A soft-agar sandwich assay was performed. Cells were sandwiched between 0.6% and 0.3% agarose in DMEM medium containing 5% FBS in a six-well chamber (500 cells/chamber), and treated with buffer (Control), or respective agent for noted time and dose at 37° C. humidified CO2 incubator. The colonies from multiple random fields were counted, compared to control and photographed essentially as described before [Jamal S, Cheryan V T, Muthu M, Munie S, Levi E, Ashour A E, Pass H I, Wali A, Singh M, Rishi A K. CARP-1 functional mimetics are a novel class of small molecule inhibitors of malignant pleural mesothelioma cells. PLos One. 2014; 9:e891; Ashour A E, Jamal S, Cheryan V T, Muthu M, Zoheir K M A, Alafeefy A M, Abd-allah A R, Levi E, Tarca A L, Polin L A, Rishi A K. CARP-1 functional mimetics: A novel class of small molecule inhibitors of medulloblastoma cell growth. PLoS One. 2013; 8:e66733; Zhang L, Levi E, Majumder P, Yu Y, Aboukameel A, Du J, Xu H, Mohammad R M, Hatfield J S, Wali A, Adsay V, Majumdar A P N, Rishi A K. Transactivator of transcription tagged cell cycle and apoptosis regulatory protein-1 peptides suppress growth of human breast cancer cells in vitro and in vivo. Mol Cancer Ther. 2007; 6:1661-1672].

[2] = tested on: mammospheres of parental and drug-resistant MDA-MB-468 TNBC cells; experiment: three-dimensional mammosphere assay; format: cell-based, human
Protocol: The TNBC cells were obtained from tumors derived from parental and drug-resistant cells or from a two-dimensional culture plate with ˜70-80% confluence. The cells were washed twice in 1×PBS and trypsinized following established protocols. The cells were pelleted at 200×g at room temperature, and re-suspended in 5 ml of mammosphere media (DMEM/F12 supplemented with 2 mM L-glutamine, 100 U/ml penicillin, […] streptomycin, 1×B27 supplement, 20 ng/ml recombinant human epidermal growth factor (EGF; Sigma), 10 ng/ml recombinant human basic fibroblast growth factor (bFGF; R&D Systems). The cell suspension of ˜5000 viable cells per ml was then seeded in an ultra-low adherent 60 mm plate and incubated at 37° C. and 5% CO2 for two weeks without disturbing the plates. After the mammospheres formed, fresh media with or without 10 μM CFM-4.16 was added and the cells incubated for additional 24 h at 37° C. and 5% CO2. The mammospheres in the untreated and treated plates were photographed, and the cells were then dissociated to determine their viabilities by the MTT assay as described [Lombardo Y, de Giorgio A, Coombes C R, Stebbing J, Castellano L. Mammosphere Formation Assay from Human Breast Cancer Tissues and Cell Lines. J. Vis. Exp. 2015; 97: e52671. doi:10.3791/52671].

HUVECs = experiment: in vitro tubule formation (angiogenesis) assay; format: cell-based, human; conditions: 12 hours; FIG. 11A
Protocol: The growth of tubules was monitored over a period of 12 hours. The cells growth in the scratch assay was recorded by photography. Representative photomicrographs of control and treated cells are presented.
It was next investigated whether CFM-4.16 inhibited TNBC cell migration and growth as colonies in soft agar and 3-dimensional cultures in vitro. In addition, an in vitro tubule formation assay was conducted to determine anti-angiogenic properties of CFM-4.16. […] Moreover, treatments with CFM-4 or CFM-4.16 prevented the parental as well as drug (ADR- or cisplatin-) resistant TNBC sublines and the parental and Herceptin-resistant, Her-2-positive SKBR-3 cells from growing in the areas of wound caused by a scratch (FIGS. 11B, 11C, 12A, 12B, 13A, and 13B).

[3] = tested on: parental and drug-resistant human TNBC cells
Protocol: Control cells were treated with 0.1% DMSO in culture medium.

[4] = tested on: CSC-enriched populations from xenografts of parental and ADR-resistant MDA-MB-231 TNBC cells; experiment: MTT viability of tumor-derived CSC-enriched cells; format: cell-based, human; conditions: dose-dependent; FIG. 15C
Protocol: The CSC-enriched cells were then treated with ADR, CFM-4.16, or a combination of both for noted dose and time. The cell viabilities were determined by MTT-based assay as in FIGS. 3A-3C, and plotted relative to the MTT values for the respective untreated controls. The histogram columns in panels B and C represent means of three and four independent experiments, respectively; bars, S.E. α, αα, β, ββ, ^*,**,#,##p=<0.03 relative to respective cells treated with ADR+CFM-4.16.
The TNBC cells were obtained from tumors derived from parental and drug-resistant cells or from a two-dimensional culture plate with ˜70-80% confluence. The cells were washed twice in 1×PBS and trypsinized following established protocols. […]
It was next clarified whether and to the extent CFM-4.16 was able to interfere with growth of mammospheres derived from parental and drug-resistant TNBC-cells. […] The growing mammosphere cultures were then exposed to CFM-4.16, and the viabilities of untreated and treated cultures were determined by an MTT-based assay. […]

[5] = maximal tolerated dose determination; format: in vivo
From the text: J. Biomed. Nanotechnol. 2015; 11:1608-1627]. […] Results was expressed as percentage.

[6] = tested on: parental and drug-resistant TNBC and SKBR-3 cells; experiment: scratch/wound healing cell migration assay; format: cell-based; conditions: FIGS. 11B, 11C, 12A, 12B, 13A, 13B
Protocol: The TNBC cells migration in the absence or presence of CFMs was measured by the “scratch/wound healing” assay. Cells were seeded in a 6-well plate (˜10,000 cells/well), and when attached, a scratch was created in the cell monolayer using sterile pipette tip. The cells were then allowed to continue growing in the absence (Control) or presence of noted dose of each of the agents for indicated time periods. The cells were photographed at the beginning and at regular intervals during the treatment period, and the images from control cells were compared with the treated cells to determine the migration of the cells essentially as described before [Liang C C, Park A Y, Guan J L In vitro scratch assay: a convenient and inexpensive method for analysis of cell migration in vitro. Nat Protoc. 2007; 2:329-33]. The photomicrographs of the cells were recorded under different magnifications utilizing Zeiss microscope with attached 35 mm camera.

SMILES: O=C1N(Cc2ccccc2Cl)c2ccccc2C12NN=C(c1cccc(Cl)c1)S2 (stereo not shown) [CFM-4.16]
- colonies formed in soft agar [1]: significant reduction in size and number of colonies
- mammosphere integrity ([2]; 10 μM, 24 h, FIG. 15A): disintegration of mammospheres
- viability of mammospheres vs DMSO-treated controls ([2]; parental and ADR-resistant cells, FIG. 15B): robust decline in viability
- tubule formation by HUVECs compared with untreated control (HUVECs): rather robust disruption in tubule integrity
- loss of viability, CFM-4.16 alone [3]: 45-55%
- viabilities of CSC enriched TNBC cells vs untreated [4]: significant loss of viabilities
- weight loss ([5]; daily iv 24-32 mg/kg days 1-16, total dose 482 mg/kg, by day 7 (recovery by day 18)): 1.6 % body weight
- clinical signs ([5]; daily iv, total dose 482 mg/kg): mild ataxia with some tail and leg twitching resolving within 1-2 minutes
- histology ([5]; daily iv, total dose 482 mg/kg): No other histological abnormalities
- growth of cells in the areas of wound caused by a scratch [6]: prevented
